Patent publication US20260315434A1, “USE OF GUAIACOL SESQUITERPENE LACTONE DERIVATIVES” (NANJING UNIVERSITY OF CHINESE MEDICINE, priority 2023, published 2026)
Converted amounts (≈) assume the structure as drawn. Like-named read-outs stand apart in the source and are kept apart here.

Columns and labels:
[1] = system: T cells / MDSCs; assay: Promotion of T cell proliferation in a co-culture model of MDSCs and T cells; assay type: cell-based, mouse; conditions: for activation at 1 µM: Mus musculus, T-cell, 12 h, read-out: T-cell proliferation rate (%), 1 μM, MDSCs treated 12 hours, co-culture of MDSCs and T cells, compared to the control group; for T-cell proliferation rate (%): 1 μM, MDSCs treated 12 hours, co-culture of MDSCs and T cells, compared to the control group
Method: Under sterile conditions, the tibia was removed, both ends of the bone were cut, and bone marrow was repeatedly flushed into a 15 mL centrifuge tube using a 1 mL syringe filled with culture medium. Centrifuge at 1600 rpm for 5 min to collect bone marrow cells. […] The spleen cell suspension was then transferred into a 15 mL centrifuge tube. Centrifuge at 1600 rpm for 5 min to collect T cells. Wash twice with 1×PBS. Resuspend the centrifuged T cells in 1 mL PBS and add 1 mL of 10 μM CFDA-SE solution. Incubate at room temperature for 8 min. […] After drug administration, collect MDSC cells into centrifuge tubes. Centrifuge at 1600 rpm for 5 min, remove supernatant, resuspend in 1 mL fresh medium, and plate. Add 1 mL stimulated activated T cells (1:1 ratio) for 48 h co-culture. After incubation, collect cells into centrifuge tubes, wash twice with PBS, and incubate with Fc antibody at room temperature in the dark for 10 min. Add CD3-labeled flow cytometry antibody and incubate at 4° C. in the dark for 30 min. After incubation, wash cells with PBS, resuspend in 300 μL PBS, and analyze by flow cytometry.

[2] = Water solubility testing of compounds (HPLC); conditions: deionized water, 37 °C
[3] = Conversion (release) of prodrug salts to parent compound in mouse plasma; assay type: in vitro ADME; conditions: 37 °C; for metabolised at 1 h / metabolised at 2 h / metabolised at 4 h / metabolised at 8 h / metabolised at 12 h: mouse, plasma
Method: (§1) Pharmaceutically acceptable salts of guaiane-type sesquiterpene lactone derivatives were selected and evaluated for their conversion rates to Compound 1 and Compound 83 in plasma and HEPES buffer, with results shown in Tables 2-1, 2-2, 3-1, and 3-2.
Plasma Preparation: Collect mouse plasma into an EP tube pre-loaded with sodium heparin, centrifuge at 8000 rpm for 10 minutes at 4° C., and then collect the supernatant.
(§2) Sample Analysis: Dissolve 0.6 mg of the compound in 250 μL of deionized water separately. Add 250 μL of mouse serum or HEPES 7.4 solution to the sample, incubate at a constant temperature of 37° C., and collect samples at different time points. Pipette 20 μL of the sample to an EP tube, add 60 μL of methanol, vortex to mix thoroughly, and centrifuge at 12,000 rpm at 4° C. for 10 min. At 1 h, 2 h, 4 h, 8 h, and 12 h respectively, collect the supernatant for HPLC analysis. Inject 10 μL of sample and record the corresponding peak areas. Chromatographic conditions: Hanbang C18 column (4.6×250 mm, 5 μm); mobile phase: acetonitrile: […] ammonium formate solution=60:40; flow rate 1.0 mL/min; detection wavelength 210 nm; column temperature 30° C.

[4] = Conversion (release) of prodrug salts to parent compound in HEPES buffer pH 7.4; assay type: in vitro ADME; conditions: for degraded at 1 h / degraded at 2 h / degraded at 4 h / degraded at 8 h / degraded at 12 h: hepes buffer, pH 7.4, HEPES pH 7.4, 37 °C; for Release rate (conversion to Compound 83): HEPES pH 7.4, 37 °C
Method: as §1
Experimental Method: Preparation of HEPES 7.4 Solution: Dissolve 1.6 g NaCl, 0.074 g KCl, 0.027 g Na2HPO4, 0.2 g glucose, and 1 g 4-(2-Hydroxyethyl)piperazine-1-ethanesulfonic acid (HEPES) solution in 90 mL distilled water. Adjust the pH to 7.4 using 0.5 M NaOH, then dilute to a final volume 100 mL with distilled water.
as §2

[5] = 1 h, read-out: Release rate (conversion to Compound 1)
[6] = 2 h, read-out: Release rate (conversion to Compound 1)
[7] = 4 h, read-out: Release rate (conversion to Compound 1)
[8] = 8 h, read-out: Release rate (conversion to Compound 1)
[9] = 12 h, read-out: Release rate (conversion to Compound 1)
[10] = 1 h, read-out: Release rate (conversion to Compound 83)
[11] = 2 h, read-out: Release rate (conversion to Compound 83)
[12] = 4 h, read-out: Release rate (conversion to Compound 83)
[13] = 8 h, read-out: Release rate (conversion to Compound 83)
[14] = 12 h, read-out: Release rate (conversion to Compound 83)

## C[C@@]12CC[C@@H]3[C@H](OC(=O)[C@H]3CN3CCCC3)[C@@H]3[C@]1(CC[C@@]3(C)O)C2 [Compound 3]
[1]
  activation at 1 µM: 20 to 40%
[2]
  Water-solubility: 1.305 mg/mL

## C[C@@]12CC[C@@H]3[C@H](OC(=O)[C@H]3CN3CCCCC3)[C@@H]3[C@]1(CC[C@@]3(C)O)C2 [Compound 5]
[1]
  activation at 1 µM: 20 to 40%
[2]
  Water-solubility: 0.730 mg/mL

## C[C@@]12CC[C@@H]3[C@H](OC(=O)[C@H]3CN3CCOCC3)[C@@H]3[C@]1(CC[C@@]3(C)O)C2 [Compound 6]
[1]
  activation at 1 µM: 0 to 20%
[2]
  Water-solubility: 0.668 mg/mL

## CCOC(=O)[C@@H]1CCCN1C[C@@H]1C(=O)O[C@H]2[C@H]1CC[C@@]1(C)C[C@]13CC[C@@](C)(O)[C@H]23 [Compound 23]
[3]; [5]
  metabolised at 1 h: 7.2%
[3]; [6]
  metabolised at 2 h: 14.3%
[3]; [7]
  metabolised at 4 h: 26.8%
[3]; [8]
  metabolised at 8 h: 45.1%
[3]; [9]
  metabolised at 12 h: 52.8%
[1]
  T-cell proliferation rate (%): + (T-cell proliferation rate within the 0-20% range compared to the control group)
[4]; [5]
  degraded at 1 h: 6.2%
[4]; [6]
  degraded at 2 h: 14.3%
[4]; [7]
  degraded at 4 h: 26.8%
[4]; [8]
  degraded at 8 h: 41.1%
[4]; [9]
  degraded at 12 h: 52.8%
[2]
  Water-solubility: 362.3 mg/mL

## C[C@@]12CC[C@@H]3[C@H](OC(=O)[C@H]3CN3CCC(N4CCCCC4)CC3)[C@@H]3[C@]1(CC[C@@]3(C)O)C2 [Compound 35]
[3]; [5]
  metabolised at 1 h: 6.8%
[3]; [6]
  metabolised at 2 h: 13.6%
[3]; [7]
  metabolised at 4 h: 26.4%
[3]; [8]
  metabolised at 8 h: 44.8%
[3]; [9]
  metabolised at 12 h: 52.5%
[4]; [5]
  degraded at 1 h: 6.8%
[4]; [6]
  degraded at 2 h: 14.6%
[4]; [7]
  degraded at 4 h: 26.4%
[4]; [8]
  degraded at 8 h: 43.8%
[4]; [9]
  degraded at 12 h: 52.5%
[2]
  Water-solubility: 212.6 mg/mL

## C[C@@]12CC[C@@H]3[C@H](OC(=O)[C@H]3CN3CCC(N4CCOCC4)CC3)[C@@H]3[C@]1(CC[C@@]3(C)O)C2 [Compound 36]
[3]; [5]
  metabolised at 1 h: 6.6%
[3]; [6]
  metabolised at 2 h: 14.8%
[3]; [7]
  metabolised at 4 h: 26%
[3]; [8]
  metabolised at 8 h: 43.6%
[3]; [9]
  metabolised at 12 h: 52.1%
[4]; [5]
  degraded at 1 h: 6.9%
[4]; [6]
  degraded at 2 h: 14.8%
[4]; [7]
  degraded at 4 h: 26%
[4]; [8]
  degraded at 8 h: 43.6%
[4]; [9]
  degraded at 12 h: 52.4%
[2]
  Water-solubility: 234.6 mg/mL

## C[C@@]12CC[C@@H]3[C@H](OC(=O)[C@H]3CN3CCC4(CC3)CC4)[C@@H]3[C@]1(CC[C@@]3(C)O)C2 [Compound 37]
[3]; [5]
  metabolised at 1 h: 8.2%
[3]; [6]
  metabolised at 2 h: 17.8%
[3]; [7]
  metabolised at 4 h: 29.3%
[3]; [8]
  metabolised at 8 h: 48.1%
[3]; [9]
  metabolised at 12 h: 67.8%
[4]; [5]
  degraded at 1 h: 7.2%
[4]; [6]
  degraded at 2 h: 16.8%
[4]; [7]
  degraded at 4 h: 28.3%
[4]; [8]
  degraded at 8 h: 44.1%
[4]; [9]
  degraded at 12 h: 65.8%
[2]
  Water-solubility: 357.5 mg/mL

## C[C@@]12CC[C@@H]3[C@H](OC(=O)[C@H]3CN3CCCCCCC3)[C@@H]3[C@]1(CC[C@@]3(C)O)C2 [Compound 38]
[3]; [5]
  metabolised at 1 h: 6.1%
[3]; [6]
  metabolised at 2 h: 14.5%
[3]; [7]
  metabolised at 4 h: 25.4%
[3]; [8]
  metabolised at 8 h: 41.4%
[3]; [9]
  metabolised at 12 h: 49.7%
[4]; [5]
  degraded at 1 h: 6.9%
[4]; [6]
  degraded at 2 h: 14.8%
[4]; [7]
  degraded at 4 h: 25.4%
[4]; [8]
  degraded at 8 h: 41.4%
[4]; [9]
  degraded at 12 h: 50.7%
[2]
  Water-solubility: 250.9 mg/mL

## CC1=C2CC[C@@](C)(OC(=O)N3CCCCC3)[C@@H]2[C@H]2OC(=O)[C@@H](CN3CCCC3)[C@@H]2CC1 [Compound 100]
[3]; [10]
  metabolised at 1 h: 6.6%
[3]; [11]
  metabolised at 2 h: 13.8%
[3]; [12]
  metabolised at 4 h: 25.6%
[3]; [13]
  metabolised at 8 h: 43.2%
[3]; [14]
  metabolised at 12 h: 53%
[1]
  T-cell proliferation rate (%): + (T-cell proliferation rate within the 0-20% range compared to the control group)
[4]; [10]
  degraded at 1 h: 6.5%
[4]; [11]
  degraded at 2 h: 14%
[4]; [12]
  degraded at 4 h: 26.4%
[4]; [13]
  degraded at 8 h: 45.2%
[4]; [14]
  degraded at 12 h: 51.4%
[2]; water, Water-solubility
  solubility: 145 mg/mL (≈ 336 mM)

## CC1=C2CC[C@@](C)(OC(=O)N3CCCCC3)[C@@H]2[C@H]2OC(=O)[C@@H](CN3CCCC3)[C@@H]2CC1 [Compound 101]
[3]; 1 h, 60 min
  Release rate (conversion to Compound 83): 7.6%
[3]; 2 h, 120 min
  Release rate (conversion to Compound 83): 16.6%
[3]; 4 h, 240 min
  Release rate (conversion to Compound 83): 27.4%
[3]; 8 h, 480 min
  Release rate (conversion to Compound 83): 46.0%
[3]; 12 h, 720 min
  Release rate (conversion to Compound 83): 54.2%
[1]
  T-cell proliferation rate (%): + (T-cell proliferation rate within the 0-20% range compared to the control group)
[4]; 1 h, 60 min
  Release rate (conversion to Compound 83): 7.0%
[4]; 2 h, 120 min
  Release rate (conversion to Compound 83): 16.0%
[4]; 4 h, 240 min
  Release rate (conversion to Compound 83): 28.2%
[4]; 8 h, 480 min
  Release rate (conversion to Compound 83): 46.4%
[4]; 12 h, 720 min
  Release rate (conversion to Compound 83): 53.6%
[2]
  Water-solubility: 108.0 mg/mL
